Reference: patent US20260257992A1, “AGONISTS OF SMALL HETERODIMER PARTNER FOR CANCER THERAPY” (THE BOARD OF TRUSTEES OF THE UNIVERSITY OF ILLINOIS, priority 2023, published 2026)

Assays:
[1] = tested on: IL1b mRNA; assay: IL1b mRNA reduction in Raw cells; assay type: cell-based; set-up: key: ✓: using strict cutoffs with respect to DSHN for passing each metric; X: using strict cutoffs with respect to DSHN for passing each metric; conditions: pass/fail with respect to DSHN
From the text: Development of a more efficacious NR0B2 agonist. While DSHN was a useful proof-of-concept small molecule, macrophages required high doses and chronic exposure for robust influences on subsequent Tregs expansion. […] Therefore, we synthesized several derivatives of DSHN and screened them using a reporter assay which makes use of the endogenous cholesterol homeostatic feedback loop, where FXR activation upregulates NR0B2, which then inhibits LXR and its normal induction of ABCA1. We then followed this screen with several others with stringent cutoffs: effect on endogenous ABCA1 and IL1β expression, reduction of Treg expansion in either macrophage or DC co-cultures, and low cellular toxicity (FIG. 5A, Table 4).

[2] = target: T1, NR0B2 (Mus musculus, UniProt Q62227); assay: Attenuation of GW3965 (LXR agonist) induction of ABCA1 mRNA in BMDMs; assay type: cell-based
T1 construct: Dose response assay in BMDMs pre-treated with increasing doses of DSHN-OMe and then treated with 1 μM GW3965, using ABCA1 mRNA as an endpoint; endogenous in cells; host or cells: mouse bone marrow derived macrophages (BMDMs)
T1 sequence (Q62227 1-260): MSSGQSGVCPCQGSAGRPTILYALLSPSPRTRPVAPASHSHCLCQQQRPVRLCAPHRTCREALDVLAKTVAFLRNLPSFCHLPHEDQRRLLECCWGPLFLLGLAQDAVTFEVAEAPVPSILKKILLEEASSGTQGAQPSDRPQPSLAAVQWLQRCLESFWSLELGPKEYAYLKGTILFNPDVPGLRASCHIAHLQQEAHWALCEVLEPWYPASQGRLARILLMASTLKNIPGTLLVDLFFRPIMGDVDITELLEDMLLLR
Description: FIG. 5A-5D. DSHN-OMe, an NR0B2 small molecule ligand with increased potency in terms of reducing Treg expansion and strong efficacy against metastatic mammary tumors. (A) DSHN-OMe effectively reduces induction of LXR target gene ABCA1 by GW3965. Different letters denote statistical difference between GW3965 treated groups (N=3-4/group, 1-way ANOVA followed by Šidák test). (B) Dose response assay in BMDMs pre-treated with increasing doses of DSHN-OMe and then treated with 1 μM GW3965, using ABCA1 mRNA as an endpoint. Data was normalized to 0.01 μM DSHN-OMe (0%) and GW3965 alone (100%). DSHN (100 μM) is indicated for comparison (bar at end of graph). […] (C) Thermal shift assay using a recombinant protein presence of a fluorescent dye. Plot of raw data is above plot of first derivative. (D) DSHN-OMe is ineffective at regulating ABCA1 when NR0B2 is knocked down with siRNA in BMDMs.
The TM for apo/unliganded was 46.74±0.22, DSHN-OMe at 46.92±0.17 and DSHN at 46.34±0.51° C. (FIG. 5C).

[3] = tested on: dendritic cells from MMTV-PyMT tumors; assay: DCs (CD11B+; CD11C+) isolated from MMTV-PyMT tumors, treated ex vivo; assay type: cell-based, mouse
From the text: FIG. 3A-3F. DSHN, a tool small molecule agonist of NR0B2 reduces macrophage/dendritic cell induced Treg expansion and tumor growth in murine models. […] (B) Dendritic cells (left-CD11B^+; CD11C^+) and CD4^+ T cells (right) were isolated from MMTV-PyMT tumors by FACS, and treated with vehicle or DSHN for 3d. The resulting frequency of Treg (CD4^+; CD25^+; FoxP3^+) was quantified by flow cytometry (right graph), (N=3-5/group, t test). […] The percentage of divided CD8+ T cells in the second round was quantified. (D) DSHN increases efficacy of αPDL1 therapy on orthotopic E0771 tumors. An optimal number of E0771 cells were grafted into FoxP3-EGFP mice and allowed to grow until tumors reached 100 mm^3. Mice were euthanized on day 19 (waterfall plot, Fisher's exact test). (E) DSHN increases efficacy of αPDL1 therapy on orthotopic 4T1 tumors. 4T1 cells were orthotopically grafted into mice and allowed to establish for 5d prior to treatment start. Mice were euthanized on day 16 (waterfall plot, Fisher's exact test). (F) DSHN reduces metastatic outgrowth of 4T1 tumors and enhances efficacy of αPDL1 compared to placebo (p) (2-way ANOVA followed by Šidák's multiple comparison test for day 16). 4T1 cells were grafted intravenously, and lung metastatic lesions allowed to establish for 3d before treatment commenced. At the end of the study, lungs were removed and imaged ex vivo, quantified data indicated (N=10, 1-way ANOVA followed by Newman-Keuls multiple comparison test). Representative luciferase images shown to the right. * or different letters denote P<0.05 using indicated statistical test.
Since myeloid cells are thought to have been uniquely polarized within the tumor microenvironment, and in order to determine whether DSHN could overcome this, we isolated DCs (CD11B^+; CD11C^+) from MMTV-PyMT tumors. […] Cd4^+ T cells expanded in co-culture with DSHN pre-treated BMDMs had decreased suppressive capacity in terms of secondary CD8+ expansion (FIG. 3C).

[4] = tested on: 4T1 tumors; assay: Orthotopic 4T1 primary tumor growth; assay type: in vivo, mouse; conditions: DSHN combined with αPDL1
From the text: FIG. 3A-3F. DSHN, a tool small molecule agonist of NR0B2 reduces macrophage/dendritic cell induced Treg expansion and tumor growth in murine models. […] (B) Dendritic cells (left-CD11B^+; CD11C^+) and CD4^+ T cells (right) were isolated from MMTV-PyMT tumors by FACS, and treated with vehicle or DSHN for 3d. The resulting frequency of Treg (CD4^+; CD25^+; FoxP3^+) was quantified by flow cytometry (right graph), (N=3-5/group, t test). […] The percentage of divided CD8+ T cells in the second round was quantified. (D) DSHN increases efficacy of αPDL1 therapy on orthotopic E0771 tumors. An optimal number of E0771 cells were grafted into FoxP3-EGFP mice and allowed to grow until tumors reached 100 mm^3. […] At the end of the study, lungs were removed and imaged ex vivo, quantified data indicated (N=10, 1-way ANOVA followed by Newman-Keuls multiple comparison test). […]
We then evaluated DSHN in a model where a low, suboptimal number of E0771-luc cells were grafted orthotopically. […] Treatment was ceased after 18 days and mice were monitored through time. […] We next assessed the effects of DSHN combined with αPDL1 on growth of primary tumors (optimal number of cells used to establish graft). […] We then evaluated the ability of DSHN to impact established metastatic disease—a stage that is refractory to standard of care therapy and immune checkpoint blockade. […]

IC50 ([2]; BMDMs pre-treated with compound, then 1 μM GW3965, 4 parameter variable slope fit, read-out: IC50, ABCA1 mRNA as endpoint)	SMILES	IL1b mRNA reduction (Raw Cells) [1]	LXR induction of ABCA1 ([2]; BMDMs, GW3965)	Attenuation of ABCA1 induction with NR0B2 knockdown ([2]; BMDMs, NR0B2 siRNA, GW3965)	Treg expansion, tumor DCs co-cultured with CD4+ T cells [3]	PD-L1 positivity of tumor DCs ([3]; cultured with DSHN followed by LPS and IFNγ)	Viability of tumor DCs ([3]; versus vehicle treated DCs from the same tumor)	Growth of established 4T1 tumors, combined with αPDL1 [4]
3.8 µM	CCN(CC)S(=O)(=O)c1cccc2cc(C(=O)OC)c(O)cc12 [DSHN-OMe, Methyl 5-(N,N-diethylsulfamoyl)-3-hydroxy-2-naphthoate]	✓	reducing LXR induction of ABCA1 in a dose-related manner	lost when NR0B2 was knocked down in BMDMs	–	–	–	–
–	CCN(CC)S(=O)(=O)c1cccc2cc(C(=O)O)c(O)cc12 [DSHN, reference compound]	–	–	–	decreased expansion of Treg cells	decreased PD-L1 positivity	increased viability	decreased growth
